Reference: patent US20130281512A1, “AGENTS FOR TREATING DISORDERS INVOLVING MODULATION OF RYANODINE RECEPTORS” (LES LABORATOIRES SERVIER, priority 2012, published 2013)

What was measured:
[1] = Metabolic stability in rat hepatic microsomes (Clint, predicted MF %); format: in vitro ADME
Description: (§1) Compound solubilization: Stock solutions were made in DMSO, and working solutions in water containing 1 mg/ml BSA.
(§2) Prediction of metabolic bioavailability: Metabolic bioavailability predictions (MF %) were based on in vitro metabolic stability measurements with hepatic microsomes assuming total absorption. Briefly, unchanged drugs were quantified by LC-MS-MS following incubation (10^−7M) with rat and human hepatic microsomes (0.33 mg protein/ml) after 0, 5, 15, 30 and 60 min of incubation in presence of NADPH (1 mM). Enzymatic reaction was stopped with methanol (v/v) and proteins were precipitated by centrifugation. The in vitro intrinsic clearances (Clint_mic) expressed as ml/min/g protein were the slope (after LN linearization) of the unchanged drug remaining concentration versus incubation time. In vitro Clint were then scaled up to in vivo whole body (vivoClint) using 0.045 mg prot/kg of liver and liver weight of 11 g for the rat and 1.2 kg for Man.

[2] = Metabolic stability in human hepatic microsomes (Clint, predicted MF %); format: in vitro ADME
Description: as §1, §2

RyR1 = biological target: T1, RyR1 (Mus musculus, UniProt E9PZQ0); assay: Calstabin1 rebinding to RyR1 in isoproterenol treated mice; format: in vivo; settings: isoproterenol 0.5 mg/kg/hr plus compound in osmotic pumps, five days; compared with 3.6 mM S36
T1 construct: RyR1 from aged (24 months) mice is oxidized, cysteine-nitrosylated, and depleted of calstabin1; host or cells: mice (in vivo)
T1 sequence (E9PZQ0 whole entry): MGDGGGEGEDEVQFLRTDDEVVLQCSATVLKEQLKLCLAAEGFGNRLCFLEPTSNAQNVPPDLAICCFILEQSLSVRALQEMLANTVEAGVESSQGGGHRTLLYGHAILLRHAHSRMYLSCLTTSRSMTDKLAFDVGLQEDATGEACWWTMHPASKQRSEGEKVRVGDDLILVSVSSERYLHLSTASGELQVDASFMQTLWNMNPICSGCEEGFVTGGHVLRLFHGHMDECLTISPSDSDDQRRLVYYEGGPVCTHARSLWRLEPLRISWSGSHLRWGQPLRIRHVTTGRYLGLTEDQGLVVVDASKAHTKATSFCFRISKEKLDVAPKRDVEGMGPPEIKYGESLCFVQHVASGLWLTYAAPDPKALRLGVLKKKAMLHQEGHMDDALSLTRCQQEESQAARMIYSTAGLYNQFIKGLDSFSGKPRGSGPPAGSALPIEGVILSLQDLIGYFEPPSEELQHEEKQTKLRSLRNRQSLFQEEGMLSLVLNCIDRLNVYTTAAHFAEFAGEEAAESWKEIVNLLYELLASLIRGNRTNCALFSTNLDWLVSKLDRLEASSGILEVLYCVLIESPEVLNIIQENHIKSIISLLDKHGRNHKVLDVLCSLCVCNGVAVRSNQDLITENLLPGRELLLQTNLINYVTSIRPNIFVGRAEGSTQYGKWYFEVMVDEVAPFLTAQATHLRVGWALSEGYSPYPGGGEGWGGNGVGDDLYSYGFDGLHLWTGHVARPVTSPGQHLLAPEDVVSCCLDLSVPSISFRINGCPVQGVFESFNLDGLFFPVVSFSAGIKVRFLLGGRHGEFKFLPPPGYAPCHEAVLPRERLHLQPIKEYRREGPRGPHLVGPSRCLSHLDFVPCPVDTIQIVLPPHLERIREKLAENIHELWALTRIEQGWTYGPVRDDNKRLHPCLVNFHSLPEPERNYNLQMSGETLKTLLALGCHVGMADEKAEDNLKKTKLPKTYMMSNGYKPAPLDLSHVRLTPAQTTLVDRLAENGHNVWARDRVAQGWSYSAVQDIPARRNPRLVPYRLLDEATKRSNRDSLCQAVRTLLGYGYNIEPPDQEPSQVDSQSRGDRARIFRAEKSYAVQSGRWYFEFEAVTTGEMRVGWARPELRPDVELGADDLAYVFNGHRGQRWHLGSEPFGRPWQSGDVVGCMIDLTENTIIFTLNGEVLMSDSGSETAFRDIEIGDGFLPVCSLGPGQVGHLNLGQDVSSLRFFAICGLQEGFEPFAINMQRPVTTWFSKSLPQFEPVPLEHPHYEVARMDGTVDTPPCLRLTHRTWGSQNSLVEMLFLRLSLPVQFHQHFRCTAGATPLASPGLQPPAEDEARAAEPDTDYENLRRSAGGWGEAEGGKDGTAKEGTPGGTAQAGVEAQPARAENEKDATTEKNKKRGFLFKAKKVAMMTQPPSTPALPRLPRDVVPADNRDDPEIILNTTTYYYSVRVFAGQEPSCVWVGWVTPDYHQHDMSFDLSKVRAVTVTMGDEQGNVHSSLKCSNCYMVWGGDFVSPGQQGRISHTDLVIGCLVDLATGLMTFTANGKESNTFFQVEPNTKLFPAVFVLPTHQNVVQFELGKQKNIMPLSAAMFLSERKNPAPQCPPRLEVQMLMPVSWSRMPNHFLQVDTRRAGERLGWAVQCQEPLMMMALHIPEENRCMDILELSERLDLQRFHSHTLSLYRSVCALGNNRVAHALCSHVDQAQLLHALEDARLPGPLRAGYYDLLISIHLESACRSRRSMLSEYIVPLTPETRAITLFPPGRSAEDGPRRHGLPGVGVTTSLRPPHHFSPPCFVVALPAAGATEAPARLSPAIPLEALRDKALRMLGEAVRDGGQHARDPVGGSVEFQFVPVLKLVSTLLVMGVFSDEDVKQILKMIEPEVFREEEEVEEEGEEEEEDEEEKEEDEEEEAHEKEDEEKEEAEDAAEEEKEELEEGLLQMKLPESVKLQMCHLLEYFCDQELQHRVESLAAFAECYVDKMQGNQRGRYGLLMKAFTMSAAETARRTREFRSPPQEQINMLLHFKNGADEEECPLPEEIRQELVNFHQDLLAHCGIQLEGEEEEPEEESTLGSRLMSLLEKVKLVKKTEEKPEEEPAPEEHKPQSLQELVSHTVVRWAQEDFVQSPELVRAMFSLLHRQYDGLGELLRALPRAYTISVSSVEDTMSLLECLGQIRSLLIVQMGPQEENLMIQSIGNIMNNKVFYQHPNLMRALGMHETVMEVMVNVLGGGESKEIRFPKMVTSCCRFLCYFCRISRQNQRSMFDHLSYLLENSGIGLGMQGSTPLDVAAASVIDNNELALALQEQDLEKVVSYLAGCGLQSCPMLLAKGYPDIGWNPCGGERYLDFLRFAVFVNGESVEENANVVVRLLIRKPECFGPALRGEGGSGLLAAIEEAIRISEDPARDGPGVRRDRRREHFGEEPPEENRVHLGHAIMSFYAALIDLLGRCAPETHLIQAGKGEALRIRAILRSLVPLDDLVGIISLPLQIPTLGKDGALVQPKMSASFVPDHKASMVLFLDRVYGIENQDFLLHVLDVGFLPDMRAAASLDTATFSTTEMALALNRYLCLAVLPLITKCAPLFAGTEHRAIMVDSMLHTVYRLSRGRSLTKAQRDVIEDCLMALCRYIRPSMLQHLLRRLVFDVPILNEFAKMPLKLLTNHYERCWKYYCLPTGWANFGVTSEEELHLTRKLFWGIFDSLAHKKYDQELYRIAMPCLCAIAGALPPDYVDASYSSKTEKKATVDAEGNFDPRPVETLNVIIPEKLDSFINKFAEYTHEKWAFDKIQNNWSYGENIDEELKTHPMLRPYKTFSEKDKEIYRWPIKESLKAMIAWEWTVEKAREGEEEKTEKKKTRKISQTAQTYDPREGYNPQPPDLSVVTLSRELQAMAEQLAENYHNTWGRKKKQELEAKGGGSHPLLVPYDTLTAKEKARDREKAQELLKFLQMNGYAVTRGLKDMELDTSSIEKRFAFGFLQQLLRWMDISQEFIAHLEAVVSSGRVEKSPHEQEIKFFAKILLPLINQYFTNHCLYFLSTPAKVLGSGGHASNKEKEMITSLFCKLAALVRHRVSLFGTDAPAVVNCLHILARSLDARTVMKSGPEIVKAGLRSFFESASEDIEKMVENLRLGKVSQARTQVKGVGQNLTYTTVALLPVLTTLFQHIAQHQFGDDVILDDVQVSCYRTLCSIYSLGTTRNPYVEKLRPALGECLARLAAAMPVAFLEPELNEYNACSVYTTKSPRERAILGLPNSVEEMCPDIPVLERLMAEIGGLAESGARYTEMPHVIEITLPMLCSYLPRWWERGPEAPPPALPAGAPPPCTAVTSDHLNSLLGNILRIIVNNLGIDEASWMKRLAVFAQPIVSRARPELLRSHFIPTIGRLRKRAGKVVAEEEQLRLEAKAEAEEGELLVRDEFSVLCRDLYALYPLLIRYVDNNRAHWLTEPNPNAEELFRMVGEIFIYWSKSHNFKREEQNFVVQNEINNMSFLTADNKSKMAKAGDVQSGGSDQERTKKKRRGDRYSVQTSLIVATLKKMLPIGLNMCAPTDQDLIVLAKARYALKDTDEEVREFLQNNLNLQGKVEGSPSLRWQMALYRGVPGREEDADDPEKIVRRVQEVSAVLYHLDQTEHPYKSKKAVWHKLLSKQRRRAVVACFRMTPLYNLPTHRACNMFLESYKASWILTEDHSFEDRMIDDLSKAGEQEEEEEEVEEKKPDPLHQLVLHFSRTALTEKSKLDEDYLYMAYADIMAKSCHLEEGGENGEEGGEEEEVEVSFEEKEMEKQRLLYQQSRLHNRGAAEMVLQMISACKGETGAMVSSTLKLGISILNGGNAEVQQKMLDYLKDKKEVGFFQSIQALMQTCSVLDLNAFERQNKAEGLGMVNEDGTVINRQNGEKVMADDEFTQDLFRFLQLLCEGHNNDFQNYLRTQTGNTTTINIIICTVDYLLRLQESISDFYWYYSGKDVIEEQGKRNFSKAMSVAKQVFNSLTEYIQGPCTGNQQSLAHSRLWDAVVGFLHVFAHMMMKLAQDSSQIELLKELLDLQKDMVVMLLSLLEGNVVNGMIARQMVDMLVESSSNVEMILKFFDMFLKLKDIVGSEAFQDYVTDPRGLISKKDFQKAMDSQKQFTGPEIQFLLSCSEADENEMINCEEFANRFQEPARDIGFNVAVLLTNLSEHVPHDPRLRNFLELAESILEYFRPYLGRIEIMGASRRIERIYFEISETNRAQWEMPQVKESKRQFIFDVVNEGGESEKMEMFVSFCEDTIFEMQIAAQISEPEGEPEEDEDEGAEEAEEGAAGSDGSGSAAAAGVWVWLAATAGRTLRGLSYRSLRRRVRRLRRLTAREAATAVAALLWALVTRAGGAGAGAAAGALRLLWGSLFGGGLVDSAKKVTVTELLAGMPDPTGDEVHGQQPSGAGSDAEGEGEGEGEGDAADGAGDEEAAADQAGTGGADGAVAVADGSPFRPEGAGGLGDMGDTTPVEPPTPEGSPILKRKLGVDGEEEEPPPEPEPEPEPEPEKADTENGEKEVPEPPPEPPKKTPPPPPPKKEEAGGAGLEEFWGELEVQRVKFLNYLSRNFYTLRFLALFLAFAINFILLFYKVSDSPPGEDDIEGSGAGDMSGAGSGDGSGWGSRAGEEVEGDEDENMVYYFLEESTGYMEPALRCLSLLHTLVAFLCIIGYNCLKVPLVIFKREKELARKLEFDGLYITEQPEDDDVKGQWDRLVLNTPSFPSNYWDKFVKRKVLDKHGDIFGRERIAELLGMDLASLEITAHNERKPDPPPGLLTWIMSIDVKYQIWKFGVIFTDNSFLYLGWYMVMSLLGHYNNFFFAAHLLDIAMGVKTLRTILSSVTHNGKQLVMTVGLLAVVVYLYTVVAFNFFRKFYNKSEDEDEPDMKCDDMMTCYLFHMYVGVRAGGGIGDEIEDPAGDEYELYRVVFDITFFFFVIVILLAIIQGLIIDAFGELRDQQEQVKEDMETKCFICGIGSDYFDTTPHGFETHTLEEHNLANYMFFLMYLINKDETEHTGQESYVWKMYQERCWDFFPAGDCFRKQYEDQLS
T1 sequence (P26883 2-108 partner limits assumed): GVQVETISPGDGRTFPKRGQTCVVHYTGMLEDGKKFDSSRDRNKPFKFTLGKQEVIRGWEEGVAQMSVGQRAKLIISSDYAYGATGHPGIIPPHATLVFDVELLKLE
Text: Isoproterenol, a beta adrenergic receptor agonist, induces heart failure in mice via overstimulation of the beta adrenergic receptor. Concurrent with this is the activation of PKA, phosphorylation of the RyR2 on the SR, and decreased interaction of calstabin2 (FKBP12.6) to RyR2. A similar cascade of events occurs in skeletal muscle, wherein RyR1 is phosphorylated, leading to decreased binding of calstabin1 (FKBP12) to RyR1.
As described in detail in International publication no. WO2008/064264, the contents of which are incorporated by reference herein, chronic isoproterenol treatment to a wild-type mouse offers a fast and reliable method for inducing changes in RyR biochemistry that could be readily quantified. These changes include increased RyR phosphorylation and concomitant decreased calstabin binding.
C57Bl/6 mice were maintained and studied according to approved protocols. The synthetic beta-adrenergic agonist, isoproterenol (ISO) was obtained from Sigma (165627) and prepared as a 100 mg/ml stock in water. […]
The loaded osmotic pumps were implanted subcutaneously by the following steps. The recipient mouse was anesthetized with 1.5-2% isoflurane in O2 administered at 0.6 L/min, and its weight was then measured and recorded. […]

[3] = 10^-7 M, 0.33 mg protein/ml, NADPH
[4] = predicted from Clint assuming total absorption

Compound: COc1ccc2c(c1)CN(Cc1ccc(C(=O)O)cc1)CCS2 [Compound 1, 4-((7-Methoxy-2,3-dihydrobenzo[f][1,4]thiazepin-4(5H)-yl)methyl)benzoic acid]
- Class (metabolic bioavailability) [1]: Inter- mediate
- Clint_mic rat (in vitro intrinsic clearance) [1, 3]: 101 ml/min/gprot
- MF mic % (metabolic bioavailability) [1, 4]: 30%
- Class (metabolic bioavailability) [2]: high
- Clint_mic man (in vitro intrinsic clearance) [2, 3]: 9.1 ml/min/gprot
- MF mic % (metabolic bioavailability) [2, 4]: 75%
- levels of calstabin1 bound to RyR1 in skeletal muscle (RyR1): enhanced levels of calstabin1 bound to RyR1
